# Values quoted from earlier work as cited in US12090222B2, “Method for dyeing keratin material, comprising the use of an organosilicon compound, two dyeing compounds and a post-treatment agent” (Henkel AG & Co. KGaA, priority 2020, dated 2024).
# Conditions: 25° C.
Molecule,solubility in water,solubility in water (in words)
"O=S(=O)([O-])c1ccc(N=Nc2c(O)ccc3ccccc23)cc1.[Na+] [Acid Orange 7, sodium salt of 4-[(2-hydroxy-1-naphthyl)azo]benzene sulphonate]",more than 7 g/L,–
"Nc1cc(S(=O)(=O)[O-])cc2cc(S(=O)(=O)[O-])c(N=Nc3ccccc3)c(O)c12.[Na+].[Na+] [Acid Red 33, disodium salt of 5-amino-4-hydroxy-3-(phenylazo)-naphthalene-2,7-disulphonate]",about 2.5 g/L,–
"O=C([O-])c1c(Cl)c(Cl)c(Cl)c(Cl)c1-c1c2c(Br)cc(=O)c(Br)c-2oc2c(Br)c(O)cc(Br)c12.O=C([O-])c1c(Cl)c(Cl)c(Cl)c(Cl)c1-c1c2c(Br)cc(=O)c(Br)c-2oc2c(Br)c(O)cc(Br)c12.[Na+].[Na+] [Acid Red 92, disodium salt of 3,4,5,6-tetrachloro-2-(1,4,5,8-tetrabromo-6-hydroxy-3-oxoxanthen-9-yl)benzoic acid]",greater than 10 g/L,–
"O=C([O-])C1=NN(c2ccc(S(=O)(=O)[O-])cc2)C(=O)C1N=Nc1ccc(S(=O)(=O)[O-])cc1.[Na+].[Na+].[Na+] (centres unmarked) [Acid Yellow 23, trisodium salt of 4,5-dihydro-5-oxo-1-(4-sulfophenyl)-4-((4-sulfophenyl)azo)-1H-pyrazole-3-carboxylic acid]",–,highly soluble
"mixture of the sodium salts of mono- and disulfonic acids of 2-(2-quinolyl)-1H-indene-1,3(2H)-dione [Acid Yellow 3]",about 20 g/L,–
